Results: ChEMBL document CHEMBL4190274, “A Cyclopeptide and a Tetrahydroisoquinoline Alkaloid from Ophiorrhiza nutans” (J Nat Prod, 2017)

Assays:
Assay type in all cases: functional, cell-based
A549 = assay: Cytotoxicity against human A549 cells
HCT-116 = assay: Cytotoxicity against human HCT116 cells
HT-29 = assay: Cytotoxicity against human HT-29 cells

Measured: IC50

C[N+](C)(C)[C@@H](Cc1ccc(O)cc1)C(=O)N[C@@H]1C(=O)N[C@@H](Cc2ccccc2)C(=O)N[C@H](C(=O)[O-])Cc2ccc(cc2)O[C@@H]1c1ccccc1
> 15 µM: all assays above
